Earlier results, collected in patent US20070003615A1, “Nanoparticulate clopidogrel and aspirin combination formulations” (Elan Pharma International Limited, priority 2005, published 2007).
Where a name gives a salt, the structure may show the parent alone. Read-outs that look alike come from different tables or passages of the source.

Assays:
[1] = not given; remark: listed apart in the source
[2] = in vivo
[3] = dry air versus contact with moisture

## COC(=O)[C@H](c1ccccc1Cl)N1CCc2sccc2C1 [clopidogrel]
water, pH not stated
  solubility in water: practically insoluble

## COC(=O)[C@H](c1ccccc1Cl)N1CCc2sccc2C1 [Clopidogrel bisulfate, methyl (+)-(S)-α-(2-chorophenyl)-6,7-dihydrothieno[3,2-c]pyridine-5(4H)-acetate sulfate (1:1)]
[1]; patients with acute coronary syndrome
  rate of combined end point of cardiovascular death, MI, or stroke (and with refractory ischemia): decrease the rate
[1]; recent MI, recent stroke, or established arterial disease
  rate of combined end point of new ischemic stroke, new MI, and other vascular death: reduce the rate
[2]
  gastric irritation (esophagus and stomach): significant gastric irritation
Ethyl ether
  solubility in ethyl ether: practically insoluble
methanol
  solubility in methanol: dissolves freely
Methylene chloride
  solubility in methylene chloride: dissolves sparingly
pH 1.0
  solubility at pH 1.0: freely soluble
Water at neutral pH
  solubility in water: practically insoluble

## CC(=O)Oc1ccccc1C(=O)O [Aspirin, 2-acetoxybenzoic acid]
[3]
  stability in air / moisture: stable in dry air, but gradually hydrolyses in contact with moisture
